Measurements published in PubChem BioAssay AID2060497 (Molecular Pharmacology Branch, DTP, NCI, 2025).
pIC50: −log10 of the molar value.

System: 317291-083-R-J1-PDC complex spheroids, viability
Test: Anticancer human tumor 317291-083-R-J1-PDC patient-derived soft tissue sarcoma cell line growth inhibition [GQUAD]
Conditions: for pIC50: curve of first compound; for viability, T/C: stronger effect = lower value
Text: DNA G-quadruplex Stabilizer Agents in Combinations in Complex Spheroids
A high-throughput screen of multi-cell type tumor spheroids was designed to identify active combinations of DNA G-quadruplex stabilizer agents and targeted small molecules. Complex spheroids include a stromal component modeled by human endothelial cells (HUVEC) and fibroblasts modeled by human mesenchymal stem cells (MSCs). The concentration ranges selected for each drug and investigational agent were based upon clinically achievable concentrations if the clinical Cmax of the agent was known.
Compounds. The drugs and investigational agents: pidnarulex (CX-5461; NSC782164), APTO-253 (NSC789042), BRACO-19 (NSC847499), peposertib (NSC802822), ceralasertib (NSC780249), elimusertib (NSC800525), camonsertib (NSC841442), AZD-1390 (NSC803789), olaparib (NSC753686), talazoparib (NSC767125), ART-558 (NSC835418), sotorasib (NSC818433), MRTX-1133 (NSC836407), SN-38 (NSC673596), topotecan (NSC609699), etoposide (NSC141540), doxorubicin (NSC123127), gemcitabine (NSC613327), 5-fluorouracil (NSC19893), paclitaxel (NSC125973), vemurafenib (NSC761431), panobinostat (NSC761190), R-306465 (JNJ-16241199; NSC773264), adavosertib (NSC754352), TP-3654 (NSC805149), carboplatin (NSC241240), KSQ-4279 (NSC840948), and staurosporine (NSC755774) were obtained from the National Cancer Institute (NCI) Developmental Therapeutics Program Chemical Repository (34). The FDA-approved anticancer drug set is available from the NCI Developmental Therapeutics Program. […] The stock solutions were prepared in dimethyl sulfoxide (DMSO, Sigma-Aldrich, St. Louis, MO, cat. D2650) at 800-fold the tested concentration and stored at -70 degrees C prior to their use. All drugs and investigational agents were tested over a range starting from a high concentration at or near the clinical Cmax and decreasing in half-log increments. If the clinical Cmax for an agent had not been determined, the highest concentration tested was 10 microM.
2.3 Cell Culture. All cells were maintained in an incubator at 37 degrees C and 5% CO2 with 95% humidity. The PDC lines were cultured according to standard operating procedures established by the NCI PDMR. All PDCs were thawed and cultured in Matrigel-coated flasks prepared with a working solution of 1X Ham's F-12 nutrient mix, without supplementation (Invitrogen, cat. 11765054), 100 U/mL penicillin-streptomycin (Invitrogen, cat. 15140122), and 2.5% Matrigel (Corning Inc., cat. 354248) for the first three passages. The 857933-349-R-J2-PDC line was cultured in 6C/Colon 1B media, which includes advanced DMEM/F-12 (Thermo Fisher Scientific, cat. 12634028), 10 mM HEPES (Thermo Fisher Scientific, cat. 15630080), 1X GlutaMAX supplement (Thermo Fisher Scientific, cat. 35050061), 0.1 mg/mL primocin (InvivoGen, cat. ant-pm-2), 10% defined fetal bovine serum, heat inactivated (HyClone Laboratories Inc., cat. SH30070.03HI), 50% L-WRN conditioned media (ATCC, cat. CRL-3276), 1.25 mM N-Acetyl-L-cysteine (Sigma-Aldrich, cat. A9165), 10 mM nicotinamide (Sigma-Aldrich, cat. N0636), 1X B-27 supplement (Thermo Fisher Scientific, cat. 17504044), 1X N-2 supplement (Thermo Fisher Scientific, cat. 17502048), 10 microM Y-27632 dihydrochloride (Tocris Bioscience, cat. 1254), and 50 ng/mL human EGF recombinant protein (Thermo Fisher Scientific, cat. PHG0311). The 485176-168-R4-J1-PDC line was cultured in Panc media, which includes all 6C/Colon 1B media components plus 100 ng/mL human FGF-10 (Thermo Fisher Scientific, cat. 100-26), 500 nM SB-431542 (Selleckchem, cat. S1067), and gastrin (Tocris, cat. 3006).
[…]
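Note: spheroids exposed to compounds for one week before readout.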
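Throughout, for viability, T/C: percent viability relative to DMSO vehicle wells taken as 100%.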

CC(C)n1c(=O)n(C)c2cnc3cc(F)c(-c4ccc(OCCCN5CCCCC5)nc4)cc3c21 + CN(C)c1ccc(Nc2c3ccc(NC(=O)CCN4CCCC4)cc3nc3cc(NC(=O)CCN4CCCC4)ccc23)cc1 gave a pIC50 (second compound 0.0316 µM) of 5.18, a pIC50 (second compound 0.1 µM) of 5.42 and a pIC50 (second compound 0.316 µM) of 6.11. For the same molecule, the pIC50 (second compound 1 µM) was 7.37, the pIC50 (second compound 3.16 µM) was > 7.50 and the pIC50 (second compound 10 µM) was > 7.50. The viability, T/C (second compound 0.0316 µM, first compound 0.0316 µM) was 96.6%, the viability, T/C (second compound 0.0316 µM, first compound 0.1 µM) was 88.6% and the viability, T/C (second compound 0.0316 µM, first compound 0.316 µM) was 92.1%. For the same molecule, the viability, T/C (second compound 0.0316 µM, first compound 1 µM) was 86.7%, the viability, T/C (second compound 0.0316 µM, first compound 3.16 µM) was 79% and the viability, T/C (second compound 0.0316 µM, first compound 10 µM) was 34.3%. For the same molecule, the viability, T/C (second compound 0.1 µM, first compound 0.0316 µM) was 92.9%, the viability, T/C (second compound 0.1 µM, first compound 0.1 µM) was 79.9% and the viability, T/C (second compound 0.1 µM, first compound 0.316 µM) was 96.3%. For the same molecule, the viability, T/C (second compound 0.1 µM, first compound 1 µM) was 81.9%, the viability, T/C (second compound 0.1 µM, first compound 3.16 µM) was 56% and the viability, T/C (second compound 0.1 µM, first compound 10 µM) was 20.6%. For the same molecule, the viability, T/C (second compound 0.316 µM, first compound 0.0316 µM) was 92.8%, the viability, T/C (second compound 0.316 µM, first compound 0.1 µM) was 65% and the viability, T/C (second compound 0.316 µM, first compound 0.316 µM) was 57.6%. For the same molecule, the viability, T/C (second compound 0.316 µM, first compound 1 µM) was 47.2%, the viability, T/C (second compound 0.316 µM, first compound 3.16 µM) was 49.6% and the viability, T/C (second compound 0.316 µM, first compound 10 µM) was 10.5%. For the same molecule, the viability, T/C (second compound 1 µM, first compound 0.0316 µM) was 53.7%, the viability, T/C (second compound 1 µM, first compound 0.1 µM) was 44.7% and the viability, T/C (second compound 1 µM, first compound 0.316 µM) was 24.4%. It also gave a viability, T/C (second compound 1 µM, first compound 1 µM) of 34.4%, a viability, T/C (second compound 1 µM, first compound 3.16 µM) of 20.1% and a viability, T/C (second compound 1 µM, first compound 10 µM) of 7.52%. It also gave a viability, T/C (second compound 3.16 µM, first compound 0.0316 µM) of 31.8%, a viability, T/C (second compound 3.16 µM, first compound 0.1 µM) of 12.2% and a viability, T/C (second compound 3.16 µM, first compound 0.316 µM) of 12.3%. For the same molecule, the viability, T/C (second compound 3.16 µM, first compound 1 µM) was 4.69%, the viability, T/C (second compound 3.16 µM, first compound 3.16 µM) was 4.81% and the viability, T/C (second compound 3.16 µM, first compound 10 µM) was 1.25%. The viability, T/C (second compound 10 µM, first compound 0.0316 µM) was 27.5%, the viability, T/C (second compound 10 µM, first compound 0.1 µM) was 3.95% and the viability, T/C (second compound 10 µM, first compound 0.316 µM) was 0.88%. The viability, T/C (second compound 10 µM, first compound 1 µM) was 0.42%, the viability, T/C (second compound 10 µM, first compound 3.16 µM) was 0.55% and the viability, T/C (second compound 10 µM, first compound 10 µM) was 4.73%.
